Assays:
[1] = target: T1, A2A adenosine receptors from rat striatum (Rattus norvegicus, UniProt P30543); assay: Sodium chloride-shift experiment; assay type: binding; conditions: for Sodium Chloride-Shift Ki (+NaCl)/Ki (−NaCl): ratio
T1 construct: A2A adenosine receptors from rat striatum; from tissue; host or cells: rat striatum
Description: The compounds were tested in a sodium chloride-shift experiment of whether they are functionally coupled to A2A adenosine receptors from rat striatum. […] The presence of a relatively high concentration of sodium chloride should not influence the affinity of the antagonists. However, the affinity of A2A AR agonists should be attenuated and therefore lead to an elevated IC50-value. […] This confirms the A2A-antagonistic function of the compounds. (Gao et al, Biochem. Pharmacol., 2000, 60, 669, herein incorporated by reference).

[2] = target: T2, Adenosine A1 (Homo sapiens, UniProt P30542); assay: Functional assay (luciferase reporter), inhibition of A1 adenosine receptor; assay type: cell-based; parameters: expressed in transfected cells; host or cells: CHO-DUKX-SRE-Luci-A1-44 (CHO-DUKX, vector pCineo); conditions: for A1 AR Imax: Imax in % of the corresponding antagonist (CPX); for IC50: read-out: A1 AR IC50; for Ki: read-out: A1 AR Ki
T2 sequence (P30542 1-326): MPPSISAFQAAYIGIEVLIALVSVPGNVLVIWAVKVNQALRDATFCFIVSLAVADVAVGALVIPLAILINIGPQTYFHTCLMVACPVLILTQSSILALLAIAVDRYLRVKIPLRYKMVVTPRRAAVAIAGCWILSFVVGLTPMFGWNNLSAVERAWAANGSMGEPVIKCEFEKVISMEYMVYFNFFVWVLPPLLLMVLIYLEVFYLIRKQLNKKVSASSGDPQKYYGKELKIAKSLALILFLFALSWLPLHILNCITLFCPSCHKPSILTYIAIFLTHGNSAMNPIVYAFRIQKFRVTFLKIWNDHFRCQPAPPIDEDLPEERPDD

[3] = target: Adenosine A2A (Homo sapiens, UniProt P29274); assay: Functional assay (luciferase reporter), inhibition of A2A adenosine receptor; assay type: cell-based; parameters: expressed in transfected cells; host or cells: CHO-DUKX-CRE-A2A-19 (CHO-DUKX, vector pCineo); conditions: for IC50: CHO-DUKX-CRE-A2A-19 cells, 60 nM NECA, read-out: A2A AR IC50; for A2A AR Imax: Imax in % of the corresponding antagonist; for Ki: Ki=IC50/(1+agonist concentration/EC50), read-out: A2A AR Ki
Sequence of Adenosine A2A (P29274 whole entry): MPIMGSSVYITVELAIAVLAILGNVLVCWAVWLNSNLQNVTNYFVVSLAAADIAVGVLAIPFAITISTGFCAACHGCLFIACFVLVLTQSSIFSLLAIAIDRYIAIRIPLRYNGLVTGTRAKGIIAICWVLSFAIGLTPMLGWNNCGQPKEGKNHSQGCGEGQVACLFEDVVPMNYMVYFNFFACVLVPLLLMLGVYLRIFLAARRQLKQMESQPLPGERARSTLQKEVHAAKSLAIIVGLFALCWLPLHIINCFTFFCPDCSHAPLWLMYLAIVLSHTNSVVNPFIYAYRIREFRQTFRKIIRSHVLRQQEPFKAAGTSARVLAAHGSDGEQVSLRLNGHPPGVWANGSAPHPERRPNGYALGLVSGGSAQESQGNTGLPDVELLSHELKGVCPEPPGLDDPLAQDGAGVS

[4] = tested on: Reserpine induced catalepsy; assay: Acute Reserpine induced catalepsy test; assay type: in vivo, rat; conditions: vs only Reserpine-treated animals
Description: (§1) Animals were administered with Reserpine or CGS-21680 according to methods known to the skilled person in the art. These models and procedures are e.g. described by Ferré S. et al., Neurosci. Let., 1991, 130, 162; Ferré S. et al., Neuroscience, 1992, 51, 501; Kafka S. H. et al., Eur. J. Pharmacol., 1996, 295, 147; Rimondini R. et al., Neuropsychopharmacology, 1997, 17, 82 and are herein incorporated by reference. In the acute CGS-21680 induced catalepsy model (CGS model) the test compounds (TC, compounds according to the present invention) and CGS-21680 (i.p. 2 mg/kg) were administered 60 minutes before the start of the catalepsy bar measurement and behavioural testing described below (see also FIG. 1). In the acute Reserpine induced catalepsy model (RES model Resperine (subcutaneously, 3 mg/kg) was injected 24 h prior to the test compound application. Catalepsy bar measurement took place 60 minutes after test compound application (see FIG. 1). Test compounds were administered i.p. in DMSO in following doses (mg/kg): 0.1, 0.3, 1, 3, 10.
(§2) Dimethylsulfoxide (DMSO) was used as vehicle for the test compounds and Reserpine. Reserpine was dissolved in DMSO in a concentration of 3 mg/ml. A 10% (w/v) Cyclodextrin solution was used as vehicle for CGS-21680. CGS 21680 was dissolved in 10% (w/v) Cyclodextrine in a concentration of 2 mg/ml.
Apomorphine was used as a reference compound in the Reserpine induced catalepsy model. Apomorphine injection solution was diluted with purified water to a concentration of 0.3 mg/ml. The solution was administered subcutaneously (s.c.) in a volume of 1 ml/kg (0.3 mg/kg) 20 minutes before the begin of testing after Reserpine pre-treatment (25 hours prior to testing).
The catalepsy bar after Reserpine administration was measured (CAT) as follows: The rat was placed with its forepaws on a log of wood. […] The animal was tested for three trials and the time for each trial was noted. The following parameters were calculated: maximum time to descend (s) and median time to descend (s). […]
(§3) All statistical tests were performed two tailed with a value of p<0.05 considered as significant.
(§4) To assess the effects of CGS-21680 and Reserpine pre-treatment compared to vehicle treated controls statistical comparisons between the test groups were performed using a U test statistic.
To assess the effects of test compounds on CGS-21680 and Reserpine pre-treated animals correlation analyses including animals from test groups and the respective test compound-treated groups were performed.
Additionally, parametric and non-parametric comparisons for the median catalepsy measure were performed to assess the reliability of the method. In case of parametric testing a GLM analyses was performed including animals from a control group (only vehicle treated animals) and the respective test compound-treated groups with dose as a categorical factor. In case of a significant result, a Dunnett's post hoc test was performed between the according test compound groups and a control group as reference group. In case of non-parametric testing a Kruskal-Wallis H-test was performed including animals from a control group and the respective test compound groups. In case of a significant result single U-test comparisons were performed between a control group and the groups treated with different doses of the test compound.

[5] = tested on: CGS-21680 induced catalepsy; assay: Acute CGS-21680 induced catalepsy test; assay type: in vivo, rat; conditions: vs only CGS-21680-treated animals
Description: as §1, §2
Caffeine was used as a reference compound in the CGS-21680 induced catalepsy model. A caffeine solution was prepared with water for injection purposes to a concentration of 30 mg/ml. The solution was administered intraperitoneally in a volume of 1 ml/kg (30 mg/kg) 30 minutes before the beginning of testing and after CGS-21680 pre-treatment (1 hour prior to testing).
The catalepsy bar after CGS-21680 administration was measured (CAT) as follows: The rat was placed with its forepaws on a log of wood. […] If the animal descended faster than 1 second, the trial was regarded as invalid. If more than 20 trials were rated as invalid, the values of all uncompleted trials were noted as 0. The animal was tested until five trials had been completed and the time for each trial was noted. Only the values of the last three trials were used for the analysis. The following parameters were calculated: maximum time to descend (s) and median time to descend (s).
Behavioural observation (BO) included the measurement of the body tone, inclined plane and grip strength.
The rat is taken in the hand of the observer and the animal's body tone is rated as normal, soft or hard. The rating is performed immediately after taking the animal from its home cage before performance of catalepsy testing. The following parameters were calculated: mean occurrence of hard body tone and mean occurrence of soft body tone.
The rat is horizontally placed to an inclined plane for a maximum time of 30 seconds. Time to reach bottom or top is measured. […] The test is performed after catalepsy testing. Time to leave the inclined plane(s) was measured.
The rat is put on a grip and the observer pulls the animal back on his tail. The strength (fore paws and hind paws) by which it holds on the grid is scored as grasping and pulling, grasping without pulling or no grasping. The test is performed after the inclined plane test. The following parameters were calculated: mean score of fore paw grip strength and mean score of hind paw grip strength.
as §3, §4
To assess the effects of test compounds on CGS-21680 and Reserpine pre-treated animals correlation analyses including animals from test groups and the respective test compound-treated groups were performed. […]

[6] = Ki (+100 mM NaCl) rA2A rat striatum [3H] MSX-2 (n = 3), +100 mM NaCl
[7] = Ki rA2A rat striatum [3H] MSX-2 (n = 3), without NaCl
[8] = CHO-DUKX-SRE-Luci-A1-44 cells, 3.5 μM ADAC
[9] = Ki=IC50/(1+agonist concentration/EC50)

T1 sequence (P30543 whole entry): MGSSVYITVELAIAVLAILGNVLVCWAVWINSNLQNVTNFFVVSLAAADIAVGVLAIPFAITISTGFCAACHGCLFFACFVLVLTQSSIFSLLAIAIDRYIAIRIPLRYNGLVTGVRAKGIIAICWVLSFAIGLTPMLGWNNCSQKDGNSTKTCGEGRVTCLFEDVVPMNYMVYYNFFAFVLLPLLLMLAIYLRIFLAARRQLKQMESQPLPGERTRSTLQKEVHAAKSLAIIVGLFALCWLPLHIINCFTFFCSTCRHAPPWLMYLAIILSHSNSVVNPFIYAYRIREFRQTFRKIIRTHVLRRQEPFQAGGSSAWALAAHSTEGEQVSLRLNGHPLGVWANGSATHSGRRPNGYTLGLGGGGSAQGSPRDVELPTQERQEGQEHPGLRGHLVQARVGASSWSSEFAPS

With `C#CCn1c(=O)c2c(nc(C#Cc3cccc(OC)c3)n2C)n(C)c1=O` [drawing 614] the Ki [1, 6] was 33.2 ± 9.9 nM, the Ki [1, 7] was 30.9 ± 8 nM and the “Sodium Chloride-Shift Ki (+NaCl)/Ki (−NaCl)” value (shortened to “Sodium Chloride-Shift Ki”) [1] was 0.97 ± 0.03.
For `C#CCn1c(=O)c2c(nc(C#Cc3cccc(Cl)c3)n2C)n(C)c1=O` [drawing 616], the Ki [1, 6] was 39.5 ± 13.1 nM, the Ki [1, 7] was 46 ± 9 nM and the “Sodium Chloride-Shift Ki” value [1] was 0.82 ± 0.13.
`C#CCn1c(=O)c2c(nc(C#Cc3cccc(OC)c3)n2C)n(C)c1=O` [drawing 617] was tested, and the “A1 AR IC50” value [2, 8] was “Nosignificantactivitydetected”, the “A1 AR Imax” value [2] was “Nosignificantactivitydetected” and the “A1 AR Ki” value [2, 9] was “Nosignificantactivitydetected”. The IC50 [3] was 1900 nM, the “A2A AR Imax” value [3] was 90% and the Ki [3] was 178 nM.
`C#CCn1c(=O)c2c(nc(C#Cc3cccc(C)c3)n2C)n(C)c1=O` [drawing 615] was tested, and the Ki [1, 6] was 53.1 ± 5.9 nM, the Ki [1, 7] was 43.4 ± 11.6 nM and the “Sodium Chloride-Shift Ki” value [1] was 1.19 ± 0.16.
For `C#CCn1c(=O)c2c(nc(C#Cc3ccc(OC)c(OC)c3)n2C)n(CC)c1=O` [drawing 618], the IC50 [2, 8] was 3900 nM, the “A1 AR Imax” value [2] was 49% and the Ki [2, 9] was 854 nM. For the same compound, the IC50 [3] was 200 nM, the “A2A AR Imax” value [3] was 97% and the Ki [3] was 23 nM.
With `C#CCn1c(=O)c2c(nc(C#Cc3cccc(C)c3)n2C)n(CCCO)c1=O` [drawing 623] the IC50 [2, 8] was 1300 nM, the “A1 AR Imax” value [2] was 102% and the Ki [2, 9] was 289 nM. The IC50 [3] was 400 nM, the “A2A AR Imax” value [3] was 109% and the Ki [3] was 40 nM.
For `CN1CCc2cccc3c2[C@H]1Cc1ccc(O)c(O)c1-3` [apomorphine, Apomorphine, reference compound], the “maximum catalepsy values after Reserpine treatment” value [4] was “decreased” and the “median catalepsy values after Reserpine treatment” value [4] was “decreased”.
With `C#CCn1c(=O)c2c(nc(C#Cc3cccc(OC)c3)n2C)n(CCCO)c1=O` [drawing 620] the IC50 [2, 8] was 1700 nM, the “A1 AR Imax” value [2] was 90% and the Ki [2, 9] was 370 nM. The IC50 [3] was 900 nM, the “A2A AR Imax” value [3] was 117% and the Ki [3] was 82 nM.
For `Cn1c(=O)c2c(ncn2C)n(C)c1=O` [caffeine, 1,3,7-trimethylxanthine, reference compound], the “hard body tone after CGS-21680 treatment” value [5] was “increased”, the “maximum catalepsy values after CGS-21680 treatment” value [5] was “significantly decreased” and the “median catalepsy values after CGS-21680 treatment” value [5] was “significantly decreased”. The “soft body tone after CGS-21680 treatment” value [5] was “decreased”.
In the case of `C#CCn1c(=O)c2c(nc(C#Cc3cccc(OC)c3)n2CC#C)n(C)c1=O` [drawing 621], the IC50 [2, 8] is reported as 2300 nM, the “A1 AR Imax” value [2] is reported as 55% and the Ki [2, 9] is reported as 501 nM. For the same compound, the IC50 [3] was 500 nM, the “A2A AR Imax” value [3] was 86% and the Ki [3] was 47 nM.

Reference: patent publication US20080221134A1, “8-ALKYNYLXANTHINES AND DERIVATIVES” (priority 2006, published 2008)
